{"source": "patent US20030148259A1", "about": "“Method of identifying insulin secretion stimulating compounds, and the use of such compounds in treating insulin-secretion related disorders” (priority 2002, published 2003)", "key": {"[1]": {"system": "INS-1E cells", "assay": "Insulin release from INS-1E cells (insulin ELISA)", "assay_type": "cell-based, rat", "experimental": "Glucose-responsive clonal insulinoma cells (INS-1E) were cultured in RPMI-1640 medium supplemented with FBS (5%, v/v), penicillin (50 i.u. /ml), streptomycin (50 μg/ml), 2-mercaptoethanol (50 μM), HEPES (10 mM) and sodium pyruvate (1 mM) (Maechler, P. et al., IUBMB.Life 50, 27-31(2000). Medium was changed every other day.\nINS-1E cells (200,000/ well) were seeded in 24-well plates and cultured for 6-7 days before using them for insulin release assay. On the day of experiment, cells were incubated in RPMI without glucose for 2 hours. Cells attached to the wells were then washed three times with warm (37° C.) medium (KRBH) containing (in mM): NaCl 140, NaHCO3 2, KCl 3.6, NaH2PO4 0.5, MgSO4 0.5, HEPES 10, CaCl2, 1.5, BSA 0.1% and incubated for 30 minutes at 37°. Cells were then incubated with 500 μl of the test solutions, by adding solution to one well at a time, every 20 sec. After one hour of incubation, 200 μl of supernatant was transferred to Eppendorf tubes, again one well at a time, every 20 sec. The collected materials were then centrifuged and supernatants were used for insulin ELISA."}, "[2]": {"system": "cAMP-PDEs", "assay": "Phosphodiesterase assay (cAMP-PDE activity in insulinoma cell fractions)", "assay_type": "biochemical, rat", "details": "for inhibition of cAMP-PDEs: methylxanthine 2.5 mM, FIG. 8D", "experimental": "Rat insulinoma cells were detached from the flasks by trypsin-EDTA. The cells were homogenized in Tris buffer containing (in mM): Tris 10, sucrose 250, EDTA 1.0, phenylmethylsulphonyl fluoride 0.01 and benzamidine 1.0The homogenates were centrifuged (48,000 g, 20 min, 4° C.). Both soluble extracts and the pellet were assayed for cAMP-PDE activity with 0.5 μM 2,8-[^3H]-cyclic AMP as substrate (see Ahmad, M. et al., Br.J.Pharmacol., 129, 1228-1234 (2000) and Thompson, W. J. and Appleman, M. M., Biochemistry, 10, 311-316 (1971)). Assays were performed by the two-step radiometric assay under linear rate formation of product and where less than 10% of substrate is utilized. Activity was expressed as pmol/min/ml and percentage inhibition of the control value."}, "[3]": {"system": "β-cells", "assay": "Screening for CICR-active agents by periodic amplification of Ca2+ signals in single β-cells (fura-2 microfluorometry)", "assay_type": "cell-based, mouse"}, "[4]": {"system": "mouse islets", "assay": "Insulin release from perifused islets (radio immunoassay)", "assay_type": "cell-based", "details": "for insulin secretion rate: 40-min stimulation; for stimulation of insulin secretion from islets: 2.5 mM caffeine, 6 μM MBED, FIG. 6", "experimental": "Normal lean mice (BALB/c, Bomholtgard, Ry, Denmark) weighing 20-25 g were starved overnight and islets isolated by collagenase digestion and dextran purification method (Shi, C. L., Cell Transplant. 6, 33-37 (1997)). Islets were then cultured overnight in RPMI 1640 medium containing 10% FBS, 11.2 mM glucose, 60 i.u./ml penicillin and 60 μg/ml gentamicin, in a water-saturated atmosphere of air and 5% CO2.\nGroups of 50 islets were transferred to a perifusion chamber housed in an infant incubator at 37° C. They were perifused at a rate of 1 ml/ min with Krebs-Ringer bicarbonate buffer supplemented with 20 mM HEPES, 0.1% BSA, glucose and drugs as required. The buffer was continuously gassed with 95% 02 and 5% CO2. The islets were perifused for 30 min with this medium containing 2 mM glucose, followed by a 40-min stimulation with 11.2 mM glucose alone (control), or 11.2 mM glucose plus drugs. During the last five minutes of perifusion with 2 mM glucose, three samples of effluent were collected to measure basal rate of insulin secretion. After switching to the 11.2 mM glucose the effluent was sampled every minute for the first five minutes and then at the intervals of 5 minutes. The average rate of insulin secretion (ng/min/50 islets) was calculated by integrating individual perifusion profile. Insulin was measured by radio immunoassay using crystalline mouse insulin as standard (Shi, C. L. cited above)."}, "[5]": {"system": "S5 cells", "assay": "Screening for CICR by periodic amplification of Ca2+ signals in S5 cells", "assay_type": "cell-based, rat", "details": "MBED 50 μM, FIG. 4", "experimental": "A new type of β-cell, called the S5 cell, which is particularly suitable for use in screening CICR-active drugs in β-cells has been developed by the present inventor. The S5 cells can be obtained from INS-1E cells by adapting the latter to culture conditions where fetal bovine serum is reduced to 2.5% and 2-mercaptoethanol is increased to 500 μM. The S5 cells are more differentiated, more slowly growing than ordinary insulinoma cells, and performs more like normal β-cells.\nThe S5 cells used in the examples below were obtained by adapting the cells to the above culture conditions over 37 passages. These cells were cultured in RPMI 1640, with L-Glutamine (Life Technologies: Catalog. No. 21875-034), supplemented with HEPES (10 mM, Life Technologies. Catalog. No. 15630-049), and sodium pyruvate (1 mM, Life Technologies. Catalog No. 11360-039). 2.5% (v/v) heat-inactivated fetal bovine serum was added to this medium and the medium was aliquoted in 50 ml tubes. To this medium, 500 μM 2-mercaptoethanol (Life Technologies. Catalog. No. 31350-010) and penicillin (50 i.u./ml), streptomycin (50 μg/ml) (Life Technologies. Catalog. No. 15070-063) was added immediately before the medium was used for culture. 2-mercaptoethanol (50 mM, stock) was aliquoted and stored frozen in 100 μl portions and was thawed just before use. […]"}, "[6]": {"system": "INS-1E cells", "assay": "Confocal microscopy imaging of [Ca2+]i in fluo-3 loaded cells", "assay_type": "cell-based, rat", "experimental": "INS-1E cells were incubated in medium containing 5 mM glucose and 5 μM fluo-3 AM for 30 minutes followed by 10 min in medium without fluo-3Cover slips were mounted in a superfusion chamber, which was superfused with physiological solution at 3 ml/min. A three-way solenoid valve system allowed for rapid exchange of solutions. The dead space of the system (from valve inlet to chamber) was -0.5 ml. The flow was increased to 6 ml/min 15 s prior to switching from control solution to experimental solutions and reduced back to 3 ml/min after return to normal solution. [Ca^2+]1 were recorded with a BioRad laser scanning confocal system (BioRad MRC 1024) attached to a Nikon Diaphot 200 inverted microscope equipped with Nikon Plan Apo 60×1.4 NA oil immersion objective. Fluo-3 was excited at 488 nm (15 mW krypton-argon mixed gas laser, intensity attenuated to 3%) and the emitted light was collected through a 522 nm narrow band filter. Images were obtained with the iris closed to the minimum size that was compatible with good image quality. For each image, 3× Kalman averaging was used. Images were stored and converted to pseudo-color images using Scion Image software (Scion Corporation, Maryland).\nRatios were calculated using the initial fluorescence F0, and the observed fluorescence F using the equation R=F/F0, and these ratios were subsequently converted into [Ca^2+]i using the equation: [Ca^2+]i=RxKD/((KD/resting [Ca^2+]i)−R). […] Resting [Ca^2+]i in these cells under the conditions of experiment was 35 nM. All experiments were carried out at room temperature (25° C.)."}, "[7]": {"details": "methylxanthine 2.5 mM, 11.2 mM glucose, 1 hr, FIG. 8A/8C"}}, "note": "Ends that are not written are not given here."}
{"compound": "Cn1c(=O)c2ncn(C)c2n(C)c1=O", "note": "[isocaffeine]", "values": [{"measurement": "insulin secretion", "setting": "[1]; [7]", "value": "stimulated insulin secretion significantly"}, {"measurement": "inhibition of cAMP-PDEs", "setting": "[2]", "value": "did not inhibit cAMP-PDEs"}, {"measurement": "periodic amplification of Ca2+ signals (CICR)", "setting": "[3]; Example 6, FIG. 3: 10 mM glucose", "value": "gave rise to periodic amplifications of Ca^2+ signals"}, {"measurement": "insulin secretion rate", "setting": "[4]; 11.2 mM glucose", "value": "1.36±0.35", "unit": "ng/min/50 islets"}, {"measurement": "stimulation of insulin secretion from islets", "setting": "[4]; 11.2 mM glucose", "value": "no significant stimulatory effect"}]}
{"compound": "Cn1cnc2c(=O)[nH]c(=O)n(C)c21", "note": "[3,9-dimethylxanthine]", "values": [{"measurement": "insulin secretion", "setting": "[1]; [7]", "value": "equally effective as caffeine in stimulating insulin secretion"}, {"measurement": "inhibition of cAMP-PDEs", "setting": "[2]", "value": "slightly less potent than caffeine in inhibiting cAMP-PDEs"}, {"measurement": "insulin secretion rate", "setting": "[4]; 11.2 mM glucose", "value": "2.76±0.81", "unit": "ng/min/50 islets"}, {"measurement": "stimulation of insulin secretion from islets", "setting": "[4]; 11.2 mM glucose", "value": "no significant stimulatory effect"}]}
{"compound": "C/C=C(/C)C(=O)O[C@H]1C(C)=C2[C@H]([C@@H]1OC(=O)CCCCCCC)[C@@](C)(OC(C)=O)C[C@H](OC(=O)CCC)[C@@]1(O)[C@H]2OC(=O)[C@@]1(C)O", "note": "[thapsigargin]", "values": [{"measurement": "basal insulin secretion", "setting": "[1]; thapsigargin-treated (Ca2+-depleted) cells", "value": "not different compared to that in controls cells"}, {"measurement": "effect on glucose-dependent caffeine-stimulated secretion", "setting": "[1]; thapsigargin-treated (ER Ca2+ depleted) cells, caffeine 0.75 mM, FIG. 11A", "value": "significantly reduced but not abolished"}]}
{"compound": "Cn1c2cnccc2c2c(Br)c(O)c(Br)cc21", "note": "[MBED, 5,7-dibromo-6-hydroxy-9-methylpyrido[3,4-b]indole]", "values": [{"measurement": "CICR (periodic amplification of Ca2+ signals)", "setting": "[5]", "value": "CICR can clearly be identified"}, {"measurement": "potency in stimulating insulin secretion relative to caffeine", "setting": "[1]; 11.2 mM glucose", "value": "about 400 times"}, {"measurement": "insulin secretion", "setting": "[1]; MBED 6 μM, 3 mM glucose, FIG. 5A", "value": "no stimulation of insulin secretion"}, {"measurement": "insulin secretion", "setting": "[1]; MBED 6 μM, 11.2 mM glucose, FIG. 5A", "value": "almost doubled the insulin secretion"}, {"measurement": "dose response of insulin secretion", "setting": "[1]; MBED 0.1 to 100 μM, 11.2 mM glucose, FIG. 5B", "value": "stimulated insulin secretion in a does-dependent manner"}, {"measurement": "Cytosolic cAMP-PDE activity", "setting": "[2]; MBED 5 μM", "value": "27.7 ± 2.5", "unit": "pmol/min/mL"}, {"measurement": "Membrane cAMP-PDE activity", "setting": "[2]; MBED 5 μM", "value": 26.5, "unit": "pmol/min/mL"}, {"measurement": "Cytosolic cAMP-PDE activity", "setting": "[2]; MBED 50 μM", "value": "31.6 ± 0.7", "unit": "pmol/min/mL"}, {"measurement": "Membrane cAMP-PDE activity", "setting": "[2]; MBED 50 μM", "value": 23.2, "unit": "pmol/min/mL"}, {"measurement": "inhibition of PDEs", "setting": "[2]; MBED 5 and 50 μM, Table 1", "value": "did not inhibit PDEs"}, {"measurement": "periodic amplified Ca2+ release in β-cells (summary of screening)", "setting": "[3]", "value": "elicit periodic amplified Ca^2+ release"}, {"measurement": "potency relative to caffeine in increasing [Ca2+]i", "setting": "[6]", "value": "more potent than caffeine"}, {"measurement": "change in [Ca2+]i", "setting": "[6]; MBED 50 μM, FIG. 7", "value": "increased [Ca^2+]i"}, {"measurement": "potency relative to caffeine in islets", "setting": "[4]; 6 μM MBED vs 2.5 mM caffeine", "value": "clearly more potent than caffeine"}, {"measurement": "reversal of stimulated secretion on wash out (lack of major toxic effect)", "setting": "[4]; 11.2 mM glucose", "value": "reversed completely on wash out"}, {"measurement": "stimulation of insulin secretion from islets", "setting": "[4]; 11.2 mM glucose", "value": "persistently stimulated both the first- and second-phases of insulin secretion"}]}
{"compound": "ryanodine", "values": [{"measurement": "effect on glucose-induced insulin secretion", "setting": "[1]; 100 μM ryanodine, 1 hr exposure", "value": "did not alter the glucose-induced insulin secretion"}, {"measurement": "insulin secretion rate (glucose-induced)", "setting": "[1]; 100 μM ryanodine, 1 hr exposure, n=4", "value": "193±11", "unit": "ng/10^6 cell/hr"}, {"measurement": "insulin secretion rate", "setting": "[1]; caffeine 0.75 mM plus 100 μM ryanodine", "value": "354±34", "unit": "ng/10^6 cell/hr"}]}
{"compound": "O=C1CN(/N=C/c2ccc(-c3ccc([N+](=O)[O-])cc3)o2)C(O)=N1", "note": "[dantrolene]", "values": [{"measurement": "effect on glucose-dependent stimulation of insulin secretion by caffeine", "setting": "[1]; dantrolene 75 μM, FIG. 11B", "value": "abolished"}]}
{"compound": "glucagons-like peptide 1: test substance glucagons-like peptide 1 (HAEGTFTSDVSSYLEGQAAKEFIAWLVKGR; ends and bridges not checked; UniProt P01275 98-127, looked up)", "values": [{"measurement": "periodic amplification of Ca2+ signals (CICR)", "setting": "[3]; Example 5, FIG. 2: 30 mM KCl, 10 μM D600 or verapamil, 13 mM glucose", "value": "gave rise to periodic amplification of Ca^2+ signals"}]}
